Source: PubChem BioAssay AID1057 (University of Pittsburgh Molecular Library Screening Center, 2008)
Activity calls are given as the source filed them. No rule for the calls is given here.

Molecular target: Serine/threonine-protein kinase PLK1 (Homo sapiens) (UniProt P53350)
Assay: PLK1 polo-box domain peptide-binding inhibitors, SAR follow-up, biochemical, fluorescence polarization, synthesized analogs, concentration response (AID 1057)
Conditions: Plk1 PBD fluorescence polarization peptide binding

Serine/threonine-protein kinase PLK1 (Homo sapiens), sequence (P53350 whole entry, looked up, the tested form may be a part): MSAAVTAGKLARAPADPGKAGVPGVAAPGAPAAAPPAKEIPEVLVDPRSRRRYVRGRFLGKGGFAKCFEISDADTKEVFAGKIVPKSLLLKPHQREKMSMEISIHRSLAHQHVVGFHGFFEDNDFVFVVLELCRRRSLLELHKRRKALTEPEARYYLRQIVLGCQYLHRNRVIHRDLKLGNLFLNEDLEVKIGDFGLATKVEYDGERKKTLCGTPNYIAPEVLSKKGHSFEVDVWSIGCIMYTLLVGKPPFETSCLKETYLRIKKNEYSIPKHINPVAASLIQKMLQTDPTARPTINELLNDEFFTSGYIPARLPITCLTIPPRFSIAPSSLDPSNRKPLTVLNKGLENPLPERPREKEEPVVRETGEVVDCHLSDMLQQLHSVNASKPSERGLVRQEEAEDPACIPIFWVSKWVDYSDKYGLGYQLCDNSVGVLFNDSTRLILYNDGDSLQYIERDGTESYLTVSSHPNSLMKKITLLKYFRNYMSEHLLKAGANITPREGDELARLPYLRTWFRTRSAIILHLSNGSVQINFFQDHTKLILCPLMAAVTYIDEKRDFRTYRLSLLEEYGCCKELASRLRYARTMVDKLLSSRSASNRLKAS

SMILES | IC50
Cc1cccc(N/N=C/c2c(O)[nH]c(=S)[nH]c2=O)c1 | > 50 µM (inactive)
CCOC(=O)CCCCCNC(=O)c1c(O)[nH]c(=O)[nH]c1=O | > 50 µM (inactive)
C/C(=N\NC(=O)c1ccncc1)c1c(O)[nH]c(=O)[nH]c1=O | > 50 µM (inactive)
